Tests used:
Plasma Stability = format: in vitro ADME
Method: Plasma Stability: Procedure: […] Plasma was warmed to 37° C. prior to the experiment and centrifuged for 5 mins at 4000 rpm. […] Each time point was monitored in triplicate (0, 10, 30, 60 and 120 min). 4 uL/well aliquot of the working solution was mixed to the blank plasma and incubated at 37° C. AT each time point samples were quenched with ACN stop solution containing 200 ng/ml Tolbutamide & 200 ng/ml Labetalol at 1:3 ratio and mix well on shaker for 10 min then centrifuge at 4000 rpm for 15 min. A 100 ul aliquot of supernatant was mixed with 100 μL of ultra-pure and submitted for LC-MS/MS analysis.

[1] = Liver Microsome stability (In Vitro Metabolism); format: in vitro ADME; conditions: for Remaining (T = NCF60 min): no cofactor 60 min
Method: Working Compound solution: 10 uM in 50 mM potassium phosphate buffer with 9% MeOH and 1% DMSO
Microsome solution: working concentration 0.625 mg/ml
Stopping solution: Cold ACN with 200 ng/ml Tolbutamide and 200 ng/ml Labetalol (4° C.)
Procedure: In the well plates (T5, T10, T20, T30, T60, NCF60 (no cofactor 60)) 10 uL of the compound/control working solution was added (except T0 and matric blank) followed by microsome solution (80 uL) and the mixture was incubated at 37 C for about 10 mins. A solution of potassium phosphate (10 ul of 50 mM) was added to NCF60 well, incubated at 37 C and time counting started. After prewarming 10 ul of NADPH regenerating solution was added to each plate to start the reaction. At different time point 300 uL/well of stopping solution to terminate the reaction. The sampling plates were shaken for 10 mins and the centrifuged for 20 mins at 4000 rpm. The supernatant was half diluted with ultra pure water and the analyzed using LCMS.

[2] = system: C. albicans SN250, C. albicans, C. krusei, C. glabrata, C. tropicalis, A. fumigatus 91, 1163, 1100; assay: Average MIC over the tested strains; format: cell-based; conditions: Table 7, C16 amide AmB variants

COC(=O)C(Cc1c[nH]cn1)NC(=O)C1C(O)CC2(O)CC(O)CC(O)C(O)CCC(O)CC(O)CC(=O)OC(C)C(C)C(O)C(C)C=CC=CC=CC=CC=CC=CC=CC(OC3OC(C)C(O)C(N)C3O)CC1O2 (stereo not drawn) [AL]
% Remaining at 120 min (Plasma Stability; Human Plasma): 107%
Half Life (Plasma Stability; Human Plasma): >4.82 h
% Remaining at 120 min (Plasma Stability; Rat Plasma): 111%
Half Life (Plasma Stability; Rat Plasma): >4.82 h
CL ([1]; Dog liver microsomes): <9.6 µL/min/mg
CLint ([1]; Dog liver microsomes): <14 mL/min/kg
Remaining (T = 60 min) ([1]; Dog liver microsomes): 101%
T1/2 ([1]; Dog liver microsomes): >2.42 h
Remaining (T = NCF60 min) ([1]; Dog liver microsomes): 87.1%
CL ([1]; Human liver microsomes): <9.6 µL/min/mg
CLint ([1]; Human liver microsomes): <8.6 mL/min/kg
Remaining (T = 60 min) ([1]; Human liver microsomes): 113%
T1/2 ([1]; Human liver microsomes): >2.42 h
Remaining (T = NCF60 min) ([1]; Human liver microsomes): 96.8%
CL ([1]; Monkey liver microsomes): <9.6 µL/min/mg
CLint ([1]; Monkey liver microsomes): <14 mL/min/kg
Remaining (T = 60 min) ([1]; Monkey liver microsomes): 107%
T1/2 ([1]; Monkey liver microsomes): >2.42 h
Remaining (T = NCF60 min) ([1]; Monkey liver microsomes): 106%
CL ([1]; Mouse liver microsomes): <9.6 µL/min/mg
CLint ([1]; Mouse liver microsomes): <38 mL/min/kg
Remaining (T = 60 min) ([1]; Mouse liver microsomes): 127%
T1/2 ([1]; Mouse liver microsomes): >2.42 h
Remaining (T = NCF60 min) ([1]; Mouse liver microsomes): 139%
CL ([1]; Rat liver microsomes): <9.6 µL/min/mg
CLint ([1]; Rat liver microsomes): <17 mL/min/kg
Remaining (T = 60 min) ([1]; Rat liver microsomes): 132%
T1/2 ([1]; Rat liver microsomes): >2.42 h
Remaining (T = NCF60 min) ([1]; Rat liver microsomes): 75.4%

CC1C=CC=CC=CC=CC=CC=CC=CC(OC2OC(C)C(O)C(N)C2O)CC2OC(O)(CC(O)CC(O)C(O)CCC(O)CC(O)CC(=O)OC(C)C(C)C1O)CC(O)C2C(=O)NCC1CCCO1 (stereo not drawn) [EZ]
MIC (Average Minimum Inhibition Concentration) [2]: 0.516 µM

O=CO [FA]
MIC (Average Minimum Inhibition Concentration) [2]: 0.516 µM

CC1C=CC=CC=CC=CC=CC=CC=CC(OC2OC(C)C(O)C(N)C2O)CC2OC(O)(CC(O)CC(O)C(O)CCC(O)CC(O)CC(=O)OC(C)C(C)C1O)CC(O)C2C(=O)NC1CN(C(N)=O)C1 (stereo not drawn) [FB]
MIC (Average Minimum Inhibition Concentration) [2]: 0.516 µM

COC(=O)C1(NC(=O)C2C(O)CC3(O)CC(O)CC(O)C(O)CCC(O)CC(O)CC(=O)OC(C)C(C)C(O)C(C)C=CC=CC=CC=CC=CC=CC=CC(OC4OC(C)C(O)C(N)C4O)CC2O3)CNC1 (stereo not drawn) [FC]
MIC (Average Minimum Inhibition Concentration) [2]: 0.516 µM

CC1C=CC=CC=CC=CC=CC=CC=CC(OC2OC(C)C(O)C(N)C2O)CC2OC(O)(CC(O)CC(O)C(O)CCC(O)CC(O)CC(=O)OC(C)C(C)C1O)CC(O)C2C(=O)NCCOCC(N)=O (stereo not drawn) [FD]
MIC (Average Minimum Inhibition Concentration) [2]: 0.516 µM

CC1C=CC=CC=CC=CC=CC=CC=CC(OC2OC(C)C(O)C(N)C2O)CC2OC(O)(CC(O)CC(O)C(O)CCC(O)CC(O)CC(=O)OC(C)C(C)C1O)CC(O)C2C(=O)N1CCC(N)C1 (stereo not drawn) [FE]
MIC (Average Minimum Inhibition Concentration) [2]: 0.531 µM

CC1C=CC=CC=CC=CC=CC=CC=CC(OC2OC(C)C(O)C(N)C2O)CC2OC(O)(CC(O)CC(O)C(O)CCC(O)CC(O)CC(=O)OC(C)C(C)C1O)CC(O)C2C(=O)NCCCCCO (stereo not drawn) [FF]
MIC (Average Minimum Inhibition Concentration) [2]: 0.531 µM

CC1C=CC=CC=CC=CC=CC=CC=CC(OC2OC(C)C(O)C(N)C2O)CC2OC(O)(CC(O)CC(O)C(O)CCC(O)CC(O)CC(=O)OC(C)C(C)C1O)CC(O)C2C(=O)NC1(C(N)=O)CC1 (stereo not drawn) [FG]
MIC (Average Minimum Inhibition Concentration) [2]: 0.531 µM

CC1C=CC=CC=CC=CC=CC=CC=CC(OC2OC(C)C(O)C(N)C2O)CC2OC(O)(CC(O)CC(O)C(O)CCC(O)CC(O)CC(=O)OC(C)C(C)C1O)CC(O)C2C(=O)N1CCNC(=O)C1 (stereo not drawn) [FH]
MIC (Average Minimum Inhibition Concentration) [2]: 0.531 µM

CC1C=CC=CC=CC=CC=CC=CC=CC(OC2OC(C)C(O)C(N)C2O)CC2OC(O)(CC(O)CC(O)C(O)CCC(O)CC(O)CC(=O)OC(C)C(C)C1O)CC(O)C2C(=O)NC1CC(N)C(O)C(O)C1O (stereo not drawn) [FI]
MIC (Average Minimum Inhibition Concentration) [2]: 0.172 µM

CC(O)CNC(=O)C1C(O)CC2(O)CC(O)CC(O)C(O)CCC(O)CC(O)CC(=O)OC(C)C(C)C(O)C(C)C=CC=CC=CC=CC=CC=CC=CC(OC3OC(C)C(O)C(N)C3O)CC1O2 (stereo not drawn) [FJ]
MIC (Average Minimum Inhibition Concentration) [2]: 0.195 µM

CC1C=CC=CC=CC=CC=CC=CC=CC(OC2OC(C)C(O)C(N)C2O)CC2OC(O)(CC(O)CC(O)C(O)CCC(O)CC(O)CC(=O)OC(C)C(C)C1O)CC(O)C2C(=O)NC1C(O)OC(CO)C(O)C1O (stereo not drawn) [FL]
MIC (Average Minimum Inhibition Concentration) [2]: 0.227 µM

CC1C=CC=CC=CC=CC=CC=CC=CC(OC2OC(C)C(O)C(N)C2O)CC2OC(O)(CC(O)CC(O)C(O)CCC(O)CC(O)CC(=O)OC(C)C(C)C1O)CC(O)C2C(=O)NC(CO)C(N)=O (stereo not drawn) [FN]
MIC (Average Minimum Inhibition Concentration) [2]: 0.238 µM

CC1C=CC=CC=CC=CC=CC=CC=CC(OC2OC(C)C(O)C(N)C2O)CC2OC(O)(CC(O)CC(O)C(O)CCC(O)CC(O)CC(=O)OC(C)C(C)C1O)CC(O)C2C(=O)NC1CC(CO)C(O)C1O (stereo not drawn) [FS]
MIC (Average Minimum Inhibition Concentration) [2]: 2.81 µM

CC1C=CC=CC=CC=CC=CC=CC=CC(OC2OC(C)C(O)C(N)C2O)CC2OC(O)(CC(O)CC(O)C(O)CCC(O)CC(O)CC(=O)OC(C)C(C)C1O)CC(O)C2C(=O)NC1C(O)C(O)OC(CO)C1O (stereo not drawn) [FT]
MIC (Average Minimum Inhibition Concentration) [2]: 0.289 µM

CC1C=CC=CC=CC=CC=CC=CC=CC(OC2OC(C)C(O)C(N)C2O)CC2OC(O)(CC(O)CC(O)C(O)CCC(O)CC(O)CC(=O)OC(C)C(C)C1O)CC(O)C2C(=O)NC1C(O)OCC(O)C1O (stereo not drawn) [FU]
MIC (Average Minimum Inhibition Concentration) [2]: 0.289 µM

CC1C=CC=CC=CC=CC=CC=CC=CC(OC2OC(C)C(O)C(N)C2O)CC2OC(O)(CC(O)CC(O)C(O)CCC(O)CC(O)CC(=O)OC(C)C(C)C1O)CC(O)C2C(=O)NCC(O)C(O)C(O)C(O)CO (stereo not drawn) [FW]
MIC (Average Minimum Inhibition Concentration) [2]: 0.313 µM

CC1C=CC=CC=CC=CC=CC=CC=CC(OC2OC(C)C(O)C(N)C2O)CC2OC(O)(CC(O)CC(O)C(O)CCC(O)CC(O)CC(=O)OC(C)C(C)C1O)CC(O)C2C(=O)NCCn1cncn1 (stereo not drawn) [FY]
MIC (Average Minimum Inhibition Concentration) [2]: 0.316 µM

CC1C=CC=CC=CC=CC=CC=CC=CC(OC2OC(C)C(O)C(N)C2O)CC2OC(O)(CC(O)CC(O)C(O)CCC(O)CC(O)CC(=O)OC(C)C(C)C1O)CC(O)C2C(=O)NC(CC(N)=O)C(N)=O (stereo not drawn) [FZ]
MIC (Average Minimum Inhibition Concentration) [2]: 0.316 µM

CC1C=CC=CC=CC=CC=CC=CC=CC(OC2OC(C)C(O)C(N)C2O)CC2OC(O)(CC(O)CC(O)C(O)CCC(O)CC(O)CC(=O)OC(C)C(C)C1O)CC(O)C2C(=O)NCCCO (stereo not drawn) [GA]
MIC (Average Minimum Inhibition Concentration) [2]: 0.320 µM

CC1C=CC=CC=CC=CC=CC=CC=CC(OC2OC(C)C(O)C(N)C2O)CC2OC(O)(CC(O)CC(O)C(O)CCC(O)CC(O)CC(=O)OC(C)C(C)C1O)CC(O)C2C(=O)NC1CCNC1=O (stereo not drawn) [GC]
MIC (Average Minimum Inhibition Concentration) [2]: 0.320 µM

CC1C=CC=CC=CC=CC=CC=CC=CC(OC2OC(C)C(O)C(N)C2O)CC2OC(O)(CC(O)CC(O)C(O)CCC(O)CC(O)CC(=O)OC(C)C(C)C1O)CC(O)C2C(=O)NC(CO)C(N)=O (stereo not drawn) [GF]
MIC (Average Minimum Inhibition Concentration) [2]: 0.324 µM

CC1C=CC=CC=CC=CC=CC=CC=CC(OC2OC(C)C(O)C(N)C2O)CC2OC(O)(CC(O)CC(O)C(O)CCC(O)CC(O)CC(=O)OC(C)C(C)C1O)CC(O)C2C(=O)NC1(C(N)=O)CNC1 (stereo not drawn) [GG]
MIC (Average Minimum Inhibition Concentration) [2]: 0.328 µM

CC1C=CC=CC=CC=CC=CC=CC=CC(OC2OC(C)C(O)C(N)C2O)CC2OC(O)(CC(O)CC(O)C(O)CCC(O)CC(O)CC(=O)OC(C)C(C)C1O)CC(O)C2C(=O)NCC(O)CO (stereo not drawn) [GH]
MIC (Average Minimum Inhibition Concentration) [2]: 0.329 µM

CNC(=O)C1C(O)CC2(O)CC(O)CC(O)C(O)CCC(O)CC(O)CC(=O)OC(C)C(C)C(O)C(C)C=CC=CC=CC=CC=CC=CC=CC(OC3OC(C)C(O)C(N)C3O)CC1O2 (stereo not drawn) [GI]
MIC (Average Minimum Inhibition Concentration) [2]: 0.336 µM

CC(NC(=O)C1C(O)CC2(O)CC(O)CC(O)C(O)CCC(O)CC(O)CC(=O)OC(C)C(C)C(O)C(C)C=CC=CC=CC=CC=CC=CC=CC(OC3OC(C)C(O)C(N)C3O)CC1O2)C(N)=O (stereo not drawn) [GJ]
MIC (Average Minimum Inhibition Concentration) [2]: 0.336 µM

CC1C=CC=CC=CC=CC=CC=CC=CC(OC2OC(C)C(O)C(N)C2O)CC2OC(O)(CC(O)CC(O)C(O)CCC(O)CC(O)CC(=O)OC(C)C(C)C1O)CC(O)C2C(=O)NC1CCCC(O)C1 (stereo not drawn) [GM]
MIC (Average Minimum Inhibition Concentration) [2]: 0.344 µM

CNC(=O)CNC(=O)C1C(O)CC2(O)CC(O)CC(O)C(O)CCC(O)CC(O)CC(=O)OC(C)C(C)C(O)C(C)C=CC=CC=CC=CC=CC=CC=CC(OC3OC(C)C(O)C(N)C3O)CC1O2 (stereo not drawn) [GN]
MIC (Average Minimum Inhibition Concentration) [2]: 0.344 µM

Reference: US20230016424A1, “HYBRID AMIDE DERIVATIVES OF AMPHOTERICIN B” (The Board of Trustees of the University of Illinois, priority 2019, published 2023)
